Data taken from patent US20210078958A1, “QUINAZOLINE DERIVATIVE AND USE THEREOF” (MEDSHINE DISCOVERY INC., priority 2017, published 2021).

Legend:
[1] = tested on: BT-474 cell; assay: inhibitory activity on cell proliferation (Cell-Titer-Glo), BT-474; assay type: cell-based; settings: Homo sapiens, BT-474, 72 h; incubation for 3 days, Cell-Titer-Glo
Text: Purpose of the assay: to detect the inhibitory activity of the test compounds on cell proliferation.
Principle of the assay: the luciferase in a Cell-Titer-Glo reagent produces oxidized luciferin with luciferin, oxygen and ATP as reaction substrates, and releases energy in the form of light. Since the luciferase reaction requires ATP, the total amount of light generated by the reaction is proportional to the total amount of ATP that reflects cell viability.
Cell Titer-Glo cell viability assay kit with luminescence (Promega #G7573)
According to the schematic diagram of the cell seed plate, cells were seeded in a 384- or 96-well plate at a density of 1000 cells per well and 25 μL per well, and 25 μL of PBS was added to the wells near edge of the place where no cells were seeded.
(1) The stock solution of the compounds has a concentration of 10 mM, and the compounds were diluted with DMSO to an initial concentration of 4 mM. The compounds were added to the plate with stock solution of compounds, 9 μL per well.
(2) The compounds were diluted with an ECHO liquid workstation, where 125 nL of compounds were added to each well of the cell plate, 125 nL of DMSO was added to each of the cell well in columns 2 and 23, and 125 nL of DMSO was added to each PBS well in columns 1 and 24.
2.3 After addition of the compounds, the cell plate was centrifuged at 1000 rpm for 1 min, and then placed in a 37° C., 5% CO2 incubator for incubation for 3 days.
The cell plate was taken out from the incubator and equilibrated at room temperature for 30 minutes. 25 μL of Cell-Titer-Glo reagent was added to each well, shaken for one minute to allow well mixed, and centrifuged at 1000 rpm for 1 minute. After 10 minutes, the plate was read on PerkinElmer Envision, and the […] reading time was set to 0.2 second.

[2] = tested on: subcutaneous xenograft tumor of human gastric cancer NCI-N87 cells; assay: Assay Example 5: in vivo pharmacodynamics, NCI-N87 xenograft; parameters: species or system BALB/c nude mouse; settings: 0.5 mg/kg
Experimental: Purpose of the assay: to evaluate the in vivo efficacy of test compounds disclosed herein on subcutaneous xenograft tumor of human gastric cancer NCI-N87 cells in a BALB/c nude mouse model.
Animals of the assay: female BALB/c nude mice, 6-8 weeks old, weighing 18-22 grams; supplier: shanghai sippr bk laboratory animals Ltd.
Human gastric cancer NCI-N87 cells were cultured in monolayer in vitro. The culture conditions were RPMI-1640 medium plus 10% fetal bovine serum, 100 U/mL penicillin, 100 μg/mL streptomycin, 37° C., 5% CO2. The passaging was performed by conventional digestion with trypsin-EDTA twice a week. When the cell saturation was 80%-90%, the cells were collected, counted and inoculated.
0.2 mL (10×10^6) of NCI-N87 cells (PBS+Matrigel, 1:1) were inoculated subcutaneously on the right back of each mouse. When the average tumor volume reached 156 mm^3, administration to each group was started.
The test compounds were formulated into a 0.05 mg/mL clear solution in the solvents of 10% NMP (N-methylpyrrolidone)+10% ethylene glycol stearate+80% water.
The assay index is to investigate whether tumor growth is inhibited, delayed or cured. Tumor diameter was measured twice a week with a vernier caliper. The calculation formula of tumor volume is: V=0.5a×b^2, wherein a and b represent the long and short diameters of tumor, respectively.
The antitumor efficacy of the compounds were evaluated by TGI (%) or tumor proliferation rate T/C (%). TGI (%) reflects the tumor growth inhibition rate. TGI (%) is calculated as follows: TGI (%)=[1−(average tumor volume at the end of administration for a certain treatment group−average tumor volume at the beginning of administration for this treatment group)/(average tumor volume at the end of treatment for a solvent control group−average tumor volume at the beginning of administration for this solvent control group)]×100%.
Tumor proliferation rate T/C (%): the calculation formula is as follows: T/C (%)=average tumor volume at the end of administration for a certain treatment group/average tumor volume at the end of treatment for the solvent control group×100%.
Statistical analysis included the mean and standard error (SEM) of tumor volume at each time point in each group (See Table 5-1 for specific data). […] The comparison between two groups was analyzed by T-test, and the comparison among three or more groups was analyzed by one-way ANOVA. […] All data analysis was carried out with SPSS 17.0. p<0.05 was considered a significant difference.

SMILES | IC50 [1] | Tumor volume (mm^3) (Day 21) ([2]; NCI-N87 xenograft, Mean + SEM) | T/C (%) ([2]; day 21) | TGI (%) ([2]; day 21)
C=CC(=O)N1[C@@H]2CC[C@H]1C[C@H](Oc1cc3c(Nc4ccc(Cl)c(Cl)c4F)ncnc3cc1OC)C2 [Example 8] | 0.39 nM |  |  | 
C=CC(=O)N1[C@@H]2CC[C@H]1C[C@H](Nc1cc3c(Nc4ccc(Cl)c(Cl)c4F)ncnc3cc1OC)C2 [Example 38] |  | 63 ± 10 mm^3 | 10.69% | 119.41%
